Measurements reported in PubChem BioAssay (NCI).
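At the GI50, growth is halved. The concentration for full growth arrest is given as TGI.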

Key:
Test in all cases: NCI tumour cell line growth inhibition, 384-well format
786-0 renal = test system: 786-0 renal
A498 renal = test system: A498 renal
A549 NSCLC = test system: A549 NSCLC
ACHN renal = test system: ACHN renal
BT-549 breast = test system: BT-549 breast
CAKI-1 renal = test system: CAKI-1 renal
CCRF-CEM leukemia = test system: CCRF-CEM leukemia
COLO 205 colon = test system: COLO 205 colon
DU-145 prostate = test system: DU-145 prostate
EKVX NSCLC = test system: EKVX NSCLC
HCC-2998 colon = test system: HCC-2998 colon
HCT-116 colon = test system: HCT-116 colon
HCT-15 colon = test system: HCT-15 colon
HL-60(TB) leukemia = test system: HL-60(TB) leukemia
HOP-62 NSCLC = test system: HOP-62 NSCLC
HOP-92 NSCLC = test system: HOP-92 NSCLC
HS 578T breast = test system: HS 578T breast
IGROV1 ovarian = test system: IGROV1 ovarian
K-562 leukemia = test system: K-562 leukemia
KM12 colon = test system: KM12 colon
LOX IMVI melanoma = test system: LOX IMVI melanoma
M14 melanoma = test system: M14 melanoma
MALME-3M melanoma = test system: MALME-3M melanoma
MCF7 breast = test system: MCF7 breast
MDA-MB-231 breast = test system: MDA-MB-231 breast
MDA-MB-435 melanoma = test system: MDA-MB-435 melanoma
MDA-MB-468 breast = test system: MDA-MB-468 breast
MOLT-4 leukemia = test system: MOLT-4 leukemia
NCI-H226 lung = test system: NCI-H226 lung
NCI-H23 lung = test system: NCI-H23 lung
NCI-H322M lung = test system: NCI-H322M lung
NCI-H460 NSCLC = test system: NCI-H460 NSCLC
NCI-H522 lung = test system: NCI-H522 lung
NCI/ADR-RES ovarian = test system: NCI/ADR-RES ovarian
OVCAR-3 ovarian = test system: OVCAR-3 ovarian
OVCAR-4 ovarian = test system: OVCAR-4 ovarian
OVCAR-5 ovarian = test system: OVCAR-5 ovarian
OVCAR-8 ovarian = test system: OVCAR-8 ovarian
PC-3 prostate = test system: PC-3 prostate
RPMI-8226 leukemia = test system: RPMI-8226 leukemia
RXF 393 renal = test system: RXF 393 renal
SF-268 CNS = test system: SF-268 CNS
SF-295 CNS = test system: SF-295 CNS
SF-539 CNS = test system: SF-539 CNS
SK-MEL-2 melanoma = test system: SK-MEL-2 melanoma
SK-MEL-28 melanoma = test system: SK-MEL-28 melanoma
SK-MEL-5 melanoma = test system: SK-MEL-5 melanoma
SK-OV-3 ovarian = test system: SK-OV-3 ovarian
SN12C renal = test system: SN12C renal
SNB-19 CNS = test system: SNB-19 CNS
SNB-75 CNS = test system: SNB-75 CNS
SR leukemia = test system: SR leukemia
SW-620 colon = test system: SW-620 colon
T-47D breast = test system: T-47D breast
TK-10 renal = test system: TK-10 renal
U251 glioblastoma = test system: U251 glioblastoma
UACC-257 melanoma = test system: UACC-257 melanoma
UACC-62 melanoma = test system: UACC-62 melanoma
UO-31 renal = test system: UO-31 renal

CCN1CCN(Cc2ccc(Nc3ncc(F)c(-c4cc(F)c5nc(C)n(C(C)C)c5c4)n3)nc2)CC1
GI50 ([…]-0 renal): 1.27 µM
TGI (786-0 renal): 7.97 µM
GI50 (A498 renal): 0.312 µM
TGI (A498 renal): 1.47 µM
GI50 (A549 NSCLC): 2.12 µM
TGI (A549 NSCLC): 7.52 µM
GI50 (ACHN renal): 0.39 µM
TGI (ACHN renal): 10.6 µM
GI50 (BT-549 breast): 0.917 µM
TGI (BT-549 breast): 16.5 µM
GI50 (CAKI-1 renal): 0.285 µM
TGI (CAKI-1 renal): 14 µM
GI50 (CCRF-CEM leukemia): 0.33 µM
TGI (CCRF-CEM leukemia): 4.39 µM
GI50 (COLO 205 colon): 0.447 µM
TGI (COLO 205 colon): > 55.9 µM
GI50 (DU-145 prostate): 1.84 µM
TGI (DU-145 prostate): 9.15 µM
GI50 (EKVX NSCLC): 18 µM
TGI (EKVX NSCLC): > 62 µM
GI50 (HCC-2998 colon): 4.45 µM
GI50 (HCT-116 colon): 0.392 µM
TGI (HCT-116 colon): 1.87 µM
GI50 (HCT-15 colon): 0.531 µM
TGI (HCT-15 colon): 7.24 µM
GI50 (HL-60(TB) leukemia): 0.386 µM
TGI (HL-60(TB) leukemia): 6.82 µM
GI50 (HOP-62 NSCLC): 8.44 µM
TGI (HOP-62 NSCLC): > 56.8 µM
GI50 (HOP-92 NSCLC): > 81.8 µM
TGI (HOP-92 NSCLC): > 100 µM
GI50 (HS 578T breast): 2.43 µM
TGI (HS 578T breast): 19.4 µM
GI50 (IGROV1 ovarian): 4.43 µM
TGI (IGROV1 ovarian): > 28.1 µM
GI50 (K-562 leukemia): 1.11 µM
TGI (K-562 leukemia): 2.32 µM
GI50 (KM12 colon): 0.485 µM
TGI (KM12 colon): 6.5 µM
GI50 (LOX IMVI melanoma): 0.372 µM
TGI (LOX IMVI melanoma): 7.23 µM
GI50 (M14 melanoma): 0.684 µM
TGI (M14 melanoma): > 28 µM
GI50 (MALME-3M melanoma): 3.43 µM
TGI (MALME-3M melanoma): 13.6 µM
GI50 (MCF7 breast): 0.395 µM
TGI (MCF7 breast): 6.59 µM
GI50 (MDA-MB-231 breast): 0.749 µM
GI50 (MDA-MB-435 melanoma): > 15.5 µM
TGI (MDA-MB-435 melanoma): > 52.4 µM
GI50 (MDA-MB-468 breast): 1.18 µM
TGI (MDA-MB-468 breast): > 25.7 µM
GI50 (MOLT-4 leukemia): 0.127 µM
TGI (MOLT-4 leukemia): 0.981 µM
GI50 (NCI-H226 lung): 0.56 µM
TGI (NCI-H226 lung): 23 µM
GI50 (NCI-H23 lung): 1.74 µM
TGI (NCI-H23 lung): 7.68 µM
GI50 (NCI-H322M lung): 1.16 µM
TGI (NCI-H322M lung): 15.2 µM
GI50 (NCI-H460 NSCLC): 0.387 µM
TGI (NCI-H460 NSCLC): 1.82 µM
GI50 (NCI-H522 lung): 9.54 µM
TGI (NCI-H522 lung): > 33.1 µM
GI50 (NCI/ADR-RES ovarian): > 60.9 µM
TGI (NCI/ADR-RES ovarian): > 100 µM
GI50 (OVCAR-3 ovarian): 4.21 µM
TGI (OVCAR-3 ovarian): > 29.3 µM
TGI (OVCAR-4 ovarian): > 19.6 µM
GI50 (OVCAR-5 ovarian): 0.944 µM
TGI (OVCAR-5 ovarian): > 68.3 µM
GI50 (OVCAR-8 ovarian): 24.3 µM
TGI (OVCAR-8 ovarian): > 32.4 µM
GI50 (PC-3 prostate): 1.49 µM
TGI (PC-3 prostate): > 31.9 µM
GI50 (RPMI-8226 leukemia): 1.42 µM
TGI (RPMI-8226 leukemia): 8.38 µM
GI50 (RXF 393 renal): 5.84 µM
TGI (RXF 393 renal): 11.6 µM
GI50 (SF-268 CNS): 2 µM
TGI (SF-268 CNS): 19 µM
GI50 (SF-295 CNS): 6.95 µM
TGI (SF-295 CNS): > 34.2 µM
GI50 (SF-539 CNS): 1.26 µM
TGI (SF-539 CNS): 2.53 µM
GI50 (SK-MEL-2 melanoma): 16.8 µM
TGI (SK-MEL-2 melanoma): 30.5 µM
GI50 (SK-MEL-28 melanoma): 1.85 µM
TGI (SK-MEL-28 melanoma): > 33.3 µM
GI50 (SK-MEL-5 melanoma): 0.26 µM
TGI (SK-MEL-5 melanoma): > 23.3 µM
GI50 (SK-OV-3 ovarian): 3.31 µM
TGI (SK-OV-3 ovarian): > 32 µM
GI50 (SN12C renal): 6.7 µM
TGI (SN12C renal): > 32.9 µM
GI50 (SNB-19 CNS): 16 µM
TGI (SNB-19 CNS): > 33.6 µM
GI50 (SNB-75 CNS): 0.708 µM
TGI (SNB-75 CNS): 10.6 µM
GI50 (SR leukemia): 0.0577 µM
TGI (SR leukemia): 0.267 µM
GI50 (SW-620 colon): 0.366 µM
TGI (SW-620 colon): 1.81 µM
GI50 (T-47D breast): 23.7 µM
TGI (T-47D breast): > 68.5 µM
GI50 (TK-10 renal): 0.803 µM
TGI (TK-10 renal): > 27.6 µM
GI50 (U251 glioblastoma): 2.87 µM
TGI (U251 glioblastoma): > 29.6 µM
GI50 (UACC-257 melanoma): 4.74 µM
TGI (UACC-257 melanoma): > 32.1 µM
GI50 (UACC-62 melanoma): 2.4 µM
TGI (UACC-62 melanoma): > 26.9 µM
GI50 (UO-31 renal): 0.362 µM
TGI (UO-31 renal): > 19.1 µM
